Laboratory results published in patent US20100028420A1, “CONTROLLED RELEASE COMPOSITION AND PROCESS” (3M Innovative Properties Company, priority 2006, published 2010).
Read-outs that look alike come from different tables or passages of the source.

Assay: Titration of dispersed solid with sodium hydroxide (pKa from titration curve)
Type: physicochemical
Details: for pKa: dispersion of the solid in deionized water
Procedure: The Comparative Compound (1.0 g) was dispersed in deionized water (199 mL) using a shear mixer/emulsifier (Silverson Model L4R, Silverson Machines, Ltd., Waterside, Chesham, Bucks, England) for approximately 5 minutes. Cresol red indicator (0.04 weight percent in water; 4 drops) was added to aid in end point detection. Samples were titrated (using a 50 mL buret with 0.1 mL graduation) with rapid stirring to maintain suspension of dispersed solid in the liquid medium (0.1 N analytical standard grade sodium hydroxide from Mallinckrodt Baker, Phillipsburg, N.J.) over a period of 1-3 hours. The dispersion became clear after 2 equivalents of base had been added, indicating conversion of the Comparative Compound to a compound corresponding to the righthand structure above. […] At higher concentrations, a liquid crystalline phase potentially useful for encapsulation of guest molecules is formed between a pH of about 7 and a pH of about 8. This phase forms at a steep end point transition of the titration curve, where even a small addition of base caused a significant change in pH (indicating a need for careful monitoring and control of the amount of base addition for use of the Comparative Compound in, for example, the encapsulation of pH-sensitive guest molecules).
(§1) Folic acid (1.0 g) was dispersed in deionized water (199 mL) using a Silverson L4R shear mixer/emulsifier for approximately 5 minutes. Cresol red indicator (0.04 weight percent in water; 4 drops) was added to aid in end point detection. Samples were titrated (using a 50 mL buret with 0.1 mL graduation) with rapid stirring to maintain suspension of dispersed solid in the liquid medium during the addition of base (0.1 N analytical standard grade sodium hydroxide from Mallinckrodt Baker, Phillipsburg, N.J.). The dispersion became clear after 2 equivalents of base had been added.
as §1, with “(2.0” for “(1.0”, “(198” for “(199”, “(0.2” for “(0.1”

[1] = 0.5 weight percent dispersion in deionized water, 0.1 N NaOH

SMILES	first pKa [1]	second pKa [1]	pKa (0.5 weight percent dispersion in deionized water, 0.1 N NaOH, read-out: first pKa)	pKa (0.5 weight percent dispersion in deionized water, 0.1 N NaOH, read-out: second pKa)	pKa (1 weight percent dispersion in deionized water, 0.2 N NaOH, read-out: first pKa)	pKa (1 weight percent dispersion in deionized water, 0.2 N NaOH, read-out: second pKa)
Cn1cc[n+](-c2nc(Nc3ccc(C(=O)O)cc3)nc(Nc3ccc(C(=O)O)cc3)n2)c1.[Cl-] [Comparative Compound]	about 3.2	about 5.8	–	–	–	–
Nc1nc(=O)c2nc(CNc3ccc(C(=O)N[C@@H](CCC(=O)O)C(=O)O)cc3)cnc2[nH]1 [Folic acid]	–	–	~5.8	~5.8	~6.1	~6.1
